Consider twelve compounds from ChEMBL document CHEMBL1201862, “PubChem BioAssay data set” (2004).

Assay in all cases: DTP human tumour cell line panel, 48 h
For experiment [1], the system named is A498.
Experiment [2] relates to HOP-92.
Experiment [3] deals with UO-31.
In experiment [4] the test system is HT-29.
For experiment [5], the system named is SK-MEL-28.
The test system of experiment [6] is MCF7.
In experiment [7] the test system is NCI-H23.
The subject of experiment [8] is COLO 205.
The subject of experiment [9] is LOX IMVI.
The test system of experiment [10] is T47D.
The subject of experiment [11] is CAKI-1.
The test system of experiment [12] is RXF 393.
Experiment [13] has as its system K562.
For experiment [14], the system named is MDA-MB-435.
Experiment [15] has as its system OVCAR-4.
Experiment [16] deals with SK-MEL-2.
Experiment [17] has as its system CCRF-CEM.

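Tested at 5 concentrations; 48 h exposure; 96-well plates; endpoints linearly interpolated, else capped at highest concentration. Here, GI50 denotes the concentration required for 50% inhibition of growth.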 Activity calls are given as the source filed them. Rule as the data show it: active = GI50 up to about 1.1 µM and inactive = higher.

As to `C=C1C(=O)OC2CC1C(OC(=O)/C=C/c1ccccc1)C/C(C)=C/CC/C(C)=C/CCC2(C)O` (stereo not given), the GI50 is 1.91 µM (inactive) in experiment [1]; 1.52 µM (inactive) in [2]; 1.61 µM (inactive) in [3]; 1.33 µM (inactive) in experiment [4]; 2.3 µM (inactive) in experiment [5]; 0.714 µM (active) in experiment [6]. Also, the GI50 in experiment [7] was 2.29 µM (inactive); in [8], 3.41 µM (inactive); in [9], 0.828 µM (active); in experiment [10], 3.47 µM (inactive); in experiment [11], 1.46 µM (inactive); in experiment [12] it was 1.34 µM (inactive). The GI50 in experiment [13] was 0.906 µM (active); in experiment [14], 1.46 µM (inactive); in experiment [15], 0.82 µM (active); in experiment [16], 1.48 µM (inactive); in [17], 0.372 µM (active).

Regarding `COC(=O)C1(SC)C2CCC3C2CCC31` (stereo not given), the GI50 in [1], in experiment [2], in [3], in experiment [5], in experiment [6] and in experiment [7] was > 100 µM (inactive) each time. For the same compound, the GI50 in experiment [8], in experiment [9], in [10], in experiment [11], in [12] and in [13] was > 100 µM (inactive) throughout. For the same compound, the GI50 in [14], in experiment [15], in [16] and in experiment [17] was > 100 µM (inactive) throughout.

Regarding `O=c1oc(-c2ccccc2)c(-c2ccccc2)n1-c1ccc(Br)cc1`, the GI50 in [1] was 26.2 µM (inactive); in [2] it was 35.4 µM (inactive); in [3], > 100 µM (inactive); in experiment [4], > 100 µM (inactive); in [5], > 100 µM (inactive); in experiment [6], > 100 µM (inactive). The GI50 was 19.8 µM (inactive) in experiment [7]; > 100 µM (inactive) in experiment [8]; 32.4 µM (inactive) in experiment [9]; 29.4 µM (inactive) in experiment [10]; > 100 µM (inactive) in experiment [11]; 36.3 µM (inactive) in experiment [12]. Also, the GI50 in experiment [14] was > 100 µM (inactive); in [15], 27 µM (inactive); in experiment [16], > 100 µM (inactive); in experiment [17], 93.8 µM (inactive).

`CC1CC[C@@]2(OC1)OC1C[C@H]3[C@@H]4C/C(=N\N(C)C)[C@@]5(O)CC(O)CC[C@]5(C)[C@H]4CC[C@]3(C)C1[C@@H]2C` (stereo not given in full): the GI50 in experiment [1] is 34.7 µM (inactive); in experiment [2] it was 98.2 µM (inactive); in [3] it was 55.5 µM (inactive); in experiment [4] it was 20 µM (inactive); in [5], > 100 µM (inactive); in experiment [6], 39.1 µM (inactive). Also, the GI50 is 30.5 µM (inactive) in [7]; 43.9 µM (inactive) in [8]; 42.5 µM (inactive) in experiment [9]; 31.5 µM (inactive) in [10]; 22.9 µM (inactive) in experiment [12]; 38.7 µM (inactive) in experiment [13]. The GI50 in experiment [14] was 29.8 µM (inactive); in experiment [15] it was 74.6 µM (inactive); in [16] it was 36.7 µM (inactive); in experiment [17], 31.3 µM (inactive).

With `COc1cc(Cc2cnc(N)nc2N)cc(OC)c1OCCCNc1ccc([N+](=O)[O-])cc1`, the GI50 in experiment [1] was 14.9 µM (inactive); in [2] it was 14.3 µM (inactive); in [3], 12.4 µM (inactive); in experiment [4] it was 2.92 µM (inactive); in experiment [5] it was 13.9 µM (inactive); in experiment [6], 12.1 µM (inactive). Further, the GI50 is 16 µM (inactive) in [7]; 12.2 µM (inactive) in experiment [8]; 8.07 µM (inactive) in experiment [10]; 33.2 µM (inactive) in [11]; 10.4 µM (inactive) in experiment [12]; 8.69 µM (inactive) in [13]. For the same compound, the GI50 in experiment [14] was 13.8 µM (inactive); in [15], 15.8 µM (inactive); in experiment [16] it was 15.5 µM (inactive); in experiment [17], 9.35 µM (inactive).

As to `COc1ccc(/N=N/c2ccc3oc(=O)c(C(=O)Nc4ccc(Cl)cc4)cc3c2)cc1`, the GI50 in [1] was > 10 µM (inactive); in experiment [2], 7.83 µM (inactive); in experiment [3] it was 2.24 µM (inactive); in experiment [4], > 10 µM (inactive); in [5], > 10 µM (inactive); in experiment [6], 3.17 µM (inactive). For the same compound, the GI50 in experiment [7] was 6.38 µM (inactive); in experiment [8], > 10 µM (inactive); in experiment [9], 9.95 µM (inactive); in experiment [10] it was 6.76 µM (inactive); in [11], > 10 µM (inactive); in [12], > 10 µM (inactive). Besides, the GI50 in [14], in [15] and in experiment [16] was > 10 µM (inactive) in each case.

`OC(C/C(=N\N=C(/CC(O)(C(F)(F)F)C(F)(F)F)c1ccccc1)c1ccccc1)(C(F)(F)F)C(F)(F)F`: the GI50 in [1], in experiment [2], in [4], in experiment [5], in experiment [6] and in experiment [7] was > 10 µM (inactive) in each case. For the same compound, the GI50 in experiment [8] was > 10 µM (inactive); in experiment [9], > 10 µM (inactive); in experiment [10] it was > 10 µM (inactive); in experiment [11] it was > 10 µM (inactive); in [12] it was 3.17 µM (inactive); in [13], > 10 µM (inactive). Moreover, the GI50 in experiment [14], in [15], in [16] and in experiment [17] was > 10 µM (inactive) each time.

Consider `COc1ccc(OC)c([N+](=O)[O-])c1-c1nc2sccn2c1/C=N/N=C(N)N`, for which the GI50 in experiment [1] is > 100 µM (inactive); in [2], 23 µM (inactive); in experiment [3], > 100 µM (inactive); in experiment [4] it was 63.8 µM (inactive); in [5], 17.7 µM (inactive); in experiment [6] it was 21.5 µM (inactive). Also, the GI50 was > 100 µM (inactive) in experiment [7]; 29 µM (inactive) in experiment [8]; 36.9 µM (inactive) in experiment [9]; 66.1 µM (inactive) in experiment [10]; > 100 µM (inactive) in experiment [11]; > 100 µM (inactive) in experiment [12]. The GI50 was 43.6 µM (inactive) in experiment [13], 52.7 µM (inactive) in [14], 33.3 µM (inactive) in experiment [16] and 34.2 µM (inactive) in experiment [17].

`Cc1ccc(S(=O)(=O)N2CCN(S(=O)(=O)c3ccc(C)cc3)CCN(S(=O)(=O)c3ccc(C)cc3)Cc3cc(Br)c(Br)cc3CN(S(=O)(=O)c3ccc(C)cc3)CC2)cc1`: the GI50 in experiment [1] is > 100 µM (inactive); in experiment [2], 23.6 µM (inactive); in experiment [3], > 100 µM (inactive); in experiment [4], > 100 µM (inactive); in experiment [5], > 100 µM (inactive); in experiment [6], > 100 µM (inactive). Further, the GI50 in experiment [7] was > 100 µM (inactive); in experiment [8], > 100 µM (inactive); in [9], 79.4 µM (inactive); in [10], > 100 µM (inactive); in experiment [11] it was > 100 µM (inactive); in experiment [12] it was > 100 µM (inactive). Besides, the GI50 in experiment [13] was > 100 µM (inactive); in [14] it was > 100 µM (inactive); in experiment [15], 44.1 µM (inactive); in experiment [17] it was > 100 µM (inactive).

On to `Cc1ccccc1[P+](C)(c1ccccc1C)c1ccccc1C`, for which the GI50 in experiment [1] is 18.5 µM (inactive); in [2], 12.7 µM (inactive); in experiment [3], 17.7 µM (inactive); in experiment [4], 5.85 µM (inactive); in experiment [5], 11.6 µM (inactive); in experiment [6], 14 µM (inactive). The GI50 in [7] was 10.3 µM (inactive); in experiment [8] it was 10.6 µM (inactive); in experiment [9] it was 14.1 µM (inactive); in experiment [10] it was 3.06 µM (inactive); in experiment [12], 36.9 µM (inactive); in experiment [14] it was 4.54 µM (inactive). Also, the GI50 in experiment [15] was 2.96 µM (inactive); in experiment [16], 13.4 µM (inactive); in [17], 0.0333 µM (active).

Turning to `O=C(CCN1CCCCC1)c1csc2ccccc12`, the GI50 in [1] is > 100 µM (inactive); in experiment [2] it was > 100 µM (inactive); in [3] it was > 100 µM (inactive); in experiment [4] it was > 100 µM (inactive); in [5] it was > 100 µM (inactive); in experiment [6], 20 µM (inactive). For the same compound, the GI50 is > 100 µM (inactive) in experiment [7]; > 100 µM (inactive) in experiment [8]; > 100 µM (inactive) in experiment [9]; 45.7 µM (inactive) in experiment [10]; > 100 µM (inactive) in [11]; > 100 µM (inactive) in experiment [12]. The GI50 in experiment [13], in experiment [14], in experiment [15] and in [16] was > 100 µM (inactive) in each case.

Take `O=C1NCN(c2ccccc2)C12CCN(CCc1ccc3[nH]c(=S)[nH]c3c1)CC2`: the GI50 is 53.6 µM (inactive) in experiment [1]; 13.9 µM (inactive) in experiment [2]; 29.3 µM (inactive) in experiment [4]; 4.12 µM (inactive) in experiment [5]; 28.5 µM (inactive) in [6]; 65.9 µM (inactive) in [7]. In addition, the GI50 is 16.3 µM (inactive) in experiment [8]; 18.5 µM (inactive) in experiment [9]; 16.4 µM (inactive) in experiment [10]; > 100 µM (inactive) in [11]; 13 µM (inactive) in experiment [12]; 17.3 µM (inactive) in [14]. The GI50 was > 100 µM (inactive) in experiment [15], 20.7 µM (inactive) in experiment [16] and 3.15 µM (inactive) in experiment [17].

One may read the GI50 as the concentration that inhibits growth by half.
